For assay [1], the target named is AXL (Homo sapiens (Human), UniProt P30530). Kind of assay: AXL autophosphorylation ELISA in A-172 cells. The format is cell-based. The following applies: cellular, Gas6-stimulated, phospho-AXL ELISA. Here is the method:
A-172 glioblastoma cells (ATCC #CRL-1620) were seeded at 2.5×10^5 cells/well onto 24-well plates (Greiner #662165), in DMEM (Thermo Fisher #11995-040) containing 10% FBS (Thermo Fisher #26140-079), 1% MEM NEAA (Thermo Fisher #11140-050), 1% GlutaMax (Thermo Fisher #35050-061), and 1% Penicillin Streptomycin (Thermo Fisher #15140-122). A-172 cells were incubated at 37° C., 5% CO2 for 24 h and then starved for 24 h in serum-free medium. Test compounds were serially diluted to produce an 8-point dose curve in fresh serum-free medium to a final concentration of 0.3% DMSO (vehicle) and added to the cells and incubated for 1 h. Cells were then stimulated with 1 μg/mL recombinant human Gas6 (R&D Systems #885-GSB-500) for 15 min, washed with cold PBS, and immediately lysed with 150 μL of cold IX lysis buffer [20 mM Tris, 137 mM sodium chloride, 2 mM EDTA, 10% glycerol, 1% NP-40 alternative, 1 mM activated sodium orthovanadate, 1 mM PefaBloc SC (Sigma-Aldrich #11429868001), protease/phosphatase inhibitor tablet (Thermo Fisher #A32959)]. Lysates were collected and 100 μL/well added into the human phospho-AXL Duo Set IC ELISA (R&D Systems #DYC2228-2). Assay was performed according to manufacturer's instructions and sample phospho-AXL concentrations were extrapolated using human phospho-AXL control (R&D Systems #841645) as a standard. Positive control wells (100% activity) contained Gas6-stimulated, DMSO-treated cell lysates. Negative control wells (0% activity) contained Gas6-stimulated, reference inhibitor-treated cell lysates. IC50 values were calculated by nonlinear regression analysis using a 4-parameter logistic curve fit in ActivityBase XL (IDBS).

In assay [2] the target is T1, Mer (Homo sapiens (Human), UniProt Q12866). Put plainly: Mer autophosphorylation ELISA in transient transfected 293A cells. The format is cell-based. The following applies: cellular, MERTK-transfected 293A cells, phospho-Mer ELISA. Here is the method: 293A cells (Thermo Fisher #R70507) were seeded at 1.5×10^6 cells/well onto 100 mm dish (Greiner #664169), in DMEM (Thermo Fisher #11995-040) containing 10% FBS (Thermo Fisher #26140-079), 1% MEM NEAA (Thermo Fisher #11140-050), 1% GlutaMax (Thermo Fisher #35050-061), and 1% Penicillin Streptomycin (Thermo Fisher #15140-122). 293A cells were incubated at 37° C., 5% CO2 for 24 h and then transfected with 6 μg MERTK DNA (Genecopoeia #EX-Z8208-M02) using TransIT LT1 transfection reagent (Mirus-Bio #MIR2305). After 24 h incubation, the transfected 293A cells were seeded at 1×10^5 cells/well onto 96-well plates (Corning #3904) in DMEM growth medium overnight. Test compounds were serially diluted to produce an 8-point dose curve in fresh serum-free medium to a final concentration of 0.3% DMSO (vehicle) and added to the cells and incubated for 1 h. Cells were then immediately lysed with 150 μL of cold IX lysis buffer [20 mM Tris, 137 mM sodium chloride, 2 mM EDTA, 10% glycerol, 1% NP-40 alternative, 1 mM activated sodium orthovanadate, 1 mM PefaBloc SC (Sigma-Aldrich #11429868001), protease/phosphatase inhibitor tablet (Thermo Fisher #A32959)]. Lysates were clarified by centrifugation and 50 μL/well added into the human phospho-Mer DuoSet IC ELISA (R&D Systems #DYC2579-2). Assay was performed according to manufacturer's instructions and sample phospho-Mer concentrations were extrapolated using human phospho-Mer control (R&D Systems #841793) as a standard. Positive control wells (100% activity) contained DMSO-treated cell lysates. Negative control wells (0% activity) contained reference inhibitor-treated cell lysates. IC50 values were calculated by nonlinear regression analysis using a 4-parameter logistic curve fit in ActivityBase XE (IDBS).
(In general: An ELISA detects its analyte on a solid surface through an enzyme-linked reagent.)
Target sequence in this assay (Q12866 21-999): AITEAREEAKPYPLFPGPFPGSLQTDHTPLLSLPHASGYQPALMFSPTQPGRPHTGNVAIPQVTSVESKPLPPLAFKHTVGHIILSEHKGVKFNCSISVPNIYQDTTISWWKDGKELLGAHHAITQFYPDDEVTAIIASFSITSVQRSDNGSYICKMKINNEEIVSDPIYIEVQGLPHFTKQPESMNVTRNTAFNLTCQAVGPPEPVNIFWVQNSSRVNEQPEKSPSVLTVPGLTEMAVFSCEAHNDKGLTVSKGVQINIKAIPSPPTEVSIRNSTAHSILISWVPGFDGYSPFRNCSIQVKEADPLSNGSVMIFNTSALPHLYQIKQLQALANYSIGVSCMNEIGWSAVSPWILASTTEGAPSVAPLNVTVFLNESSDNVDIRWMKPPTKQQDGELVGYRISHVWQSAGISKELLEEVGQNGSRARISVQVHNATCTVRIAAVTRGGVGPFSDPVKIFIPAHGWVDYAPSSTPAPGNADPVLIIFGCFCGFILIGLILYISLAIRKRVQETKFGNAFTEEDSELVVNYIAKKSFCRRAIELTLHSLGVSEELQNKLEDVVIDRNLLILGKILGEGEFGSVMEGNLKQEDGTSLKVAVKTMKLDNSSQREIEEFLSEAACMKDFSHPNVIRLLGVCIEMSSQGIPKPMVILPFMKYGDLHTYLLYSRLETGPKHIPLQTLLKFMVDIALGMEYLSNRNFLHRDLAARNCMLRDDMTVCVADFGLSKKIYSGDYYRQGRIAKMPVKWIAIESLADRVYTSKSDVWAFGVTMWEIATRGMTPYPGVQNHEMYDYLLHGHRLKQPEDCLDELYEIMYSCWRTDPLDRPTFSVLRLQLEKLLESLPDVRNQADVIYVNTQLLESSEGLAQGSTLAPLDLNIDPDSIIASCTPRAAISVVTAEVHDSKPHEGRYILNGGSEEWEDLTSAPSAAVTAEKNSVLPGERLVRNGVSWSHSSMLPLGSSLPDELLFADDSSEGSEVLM

In assay [3] the target is T2, Met (Homo sapiens (Human), UniProt P08581). Put plainly: Met autophosphorylation ELISA in PC-3 cells. The assay is classed as cell-based. The following applies: cellular, HGF-stimulated, phospho-Met ELISA, read-out: c-Met IC50. Here is the method: PC-3 prostate cancer cells (ATCC #CRL-1435) were seeded at 4×10^4 cells/well onto 24-well plates (Greiner #662165), in DMEM (Thermo Fisher #11995-040) containing 10% FBS (Thermo Fisher #26140-079), 1% MEM NEAA (Thermo Fisher #11140-050), 1% GlutaMax (Thermo Fisher #35050-061), and 1% Penicillin Streptomycin (Thermo Fisher #15140-122). PC-3 cells were incubated at 37° C., 5% CO2 for 24 h and then starved for 3 h in serum-free medium. Test compounds were serially diluted to produce an 8-point dose curve in fresh serum-free medium to a final concentration of 0.3% DMSO (vehicle) and added to the cells and incubated for 1 h. Cells were then stimulated with 100 ng/mL recombinant human HGF (R&D Systems #294-HG-250) for 10 min, washed with cold PBS, and immediately lysed with 130 μL of cold IX lysis buffer [20 mM Tris, 137 mM sodium chloride, 2 mM EDTA, 10% glycerol, 1% NP-40 alternative, 1 mM activated sodium orthovanadate, 1 mM PefaBloc SC (Sigma-Aldrich #11429868001), protease/phosphatase inhibitor tablet (Thermo Fisher #A32959)]. Lysates were clarified by centrifugation and 100 μL/well added into the PathScan phospho-Met (panTyr) Sandwich ELISA (Cell Signaling Technology #7333). Assay was performed according to manufacturer's instructions. Positive control wells (100% activity) contained HGF-stimulated, DMSO-treated cell lysates. Negative control wells (0% activity) contained HGF-stimulated, reference inhibitor-treated cell lysates. IC50 values were calculated by nonlinear regression analysis using a 4-parameter logistic curve fit in ActivityBase XL (IDBS).
Target sequence in this assay (P08581 25-1390): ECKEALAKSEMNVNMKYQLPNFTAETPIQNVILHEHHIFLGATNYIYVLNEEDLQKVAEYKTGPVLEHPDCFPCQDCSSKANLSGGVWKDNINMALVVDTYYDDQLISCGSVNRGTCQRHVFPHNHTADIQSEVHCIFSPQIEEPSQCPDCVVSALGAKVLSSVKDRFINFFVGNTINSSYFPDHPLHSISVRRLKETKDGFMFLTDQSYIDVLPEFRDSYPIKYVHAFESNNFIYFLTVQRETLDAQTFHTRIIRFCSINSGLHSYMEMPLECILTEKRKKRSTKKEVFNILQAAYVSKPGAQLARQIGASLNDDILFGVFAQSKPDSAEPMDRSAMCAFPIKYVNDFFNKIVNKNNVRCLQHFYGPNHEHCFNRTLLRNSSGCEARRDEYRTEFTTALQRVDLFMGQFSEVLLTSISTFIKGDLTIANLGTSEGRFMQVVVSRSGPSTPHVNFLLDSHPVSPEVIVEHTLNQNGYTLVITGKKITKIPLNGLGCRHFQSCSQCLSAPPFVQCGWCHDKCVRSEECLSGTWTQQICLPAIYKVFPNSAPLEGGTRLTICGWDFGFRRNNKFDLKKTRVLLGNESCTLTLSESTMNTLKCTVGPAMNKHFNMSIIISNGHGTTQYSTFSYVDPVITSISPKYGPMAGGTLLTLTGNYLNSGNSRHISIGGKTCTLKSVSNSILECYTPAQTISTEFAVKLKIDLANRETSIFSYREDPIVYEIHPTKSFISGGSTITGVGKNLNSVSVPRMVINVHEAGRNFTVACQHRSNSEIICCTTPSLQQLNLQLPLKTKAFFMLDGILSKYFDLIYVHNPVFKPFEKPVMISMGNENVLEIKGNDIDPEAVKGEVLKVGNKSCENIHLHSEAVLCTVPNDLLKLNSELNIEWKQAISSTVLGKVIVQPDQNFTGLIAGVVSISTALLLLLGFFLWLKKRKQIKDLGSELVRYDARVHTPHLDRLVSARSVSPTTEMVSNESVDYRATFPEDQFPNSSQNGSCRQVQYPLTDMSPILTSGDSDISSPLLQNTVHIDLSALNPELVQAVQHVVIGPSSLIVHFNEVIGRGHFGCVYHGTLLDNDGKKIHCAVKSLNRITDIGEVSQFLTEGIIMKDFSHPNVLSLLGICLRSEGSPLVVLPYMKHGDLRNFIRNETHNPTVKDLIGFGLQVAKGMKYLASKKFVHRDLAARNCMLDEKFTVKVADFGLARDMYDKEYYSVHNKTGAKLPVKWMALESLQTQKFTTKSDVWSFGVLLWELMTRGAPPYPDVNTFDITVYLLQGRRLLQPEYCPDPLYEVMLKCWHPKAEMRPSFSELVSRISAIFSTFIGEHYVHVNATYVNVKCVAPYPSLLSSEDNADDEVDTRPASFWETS

Assay [4] concerns the target KDR (Homo sapiens (Human), UniProt P35968). Kind of assay: KDR autophosphorylation ELISA in HUVEC cells. The following applies: cellular, VEGF165-stimulated, phospho-KDR ELISA. The format is cell-based. Here is the method: Human umbilical vein endothelial cells or HUVEC (Lonza #C2519A) were seeded at 2×10^4 cells/well onto 96-well plates (Corning #3904), in EGM-2 growth medium (Lonza #CC-3162) containing 1% Penicillin Streptomycin (Thermo Fisher #15140-122). HUVEC cells were incubated at 37° C., 5% CO2 for 24 h and then starved for 24 h in serum-free EBM-2 basal medium (Lonza #CC-3156) containing 1% Penicillin Streptomycin. Test compounds were serially diluted to produce an 8-point dose curve in fresh serum-free medium to a final concentration of 0.3% DMSO (vehicle) and added to the cells and incubated for 1 h. Cells were then stimulated with 100 ng/mL recombinant human VEGF165 (R&D Systems #293-VE-500) for 5 min, washed with cold PBS, and immediately lysed with 130 μL of cold 1× lysis buffer [20 mM Tris, 137 mM sodium chloride, 2 mM EDTA, 10% glycerol, 1% NP-40 alternative, 1 mM activated sodium orthovanadate, 1 mM PefaBloc SC (Sigma-Aldrich #11429868001), protease/phosphatase inhibitor tablet (Thermo Fisher #A32959)]. Lysates were collected and 100 μL/well added into the human phospho-KDR Duo Set IC ELISA (R&D Systems #DYC 1766-2). Assay was performed according to manufacturer's instructions and sample phospho-KDR concentrations were extrapolated using human phospho-KDR control (R&D Systems #841421) as a standard. Positive control wells (100% activity) contained VEGF165-stimulated, DMSO-treated cell lysates. Negative control wells (0% activity) contained non-stimulated cell lysates. IC50 values were calculated by nonlinear regression analysis using a 4-parameter logistic curve fit in ActivityBase XE (IDBS).

In assay [5] the target is T2, Met. Put plainly: Human Met kinase assay (33P radiometric, KinaseProfiler). The format is biochemical. Conditions: 10 μM ATP, read-out: c-Met IC50. Here is the method: (§1) Kinase activity and compound inhibition were investigated using the ^33P-Phosphoryl transfer radiometric kinase assay, performed using the KinaseProfiler™ service of Eurofins Pharma Discovery Services UK Limited. Dose-response experiments were performed using nine compound concentrations in a 96-well microtiter plate. For each assay, all compounds were prepared to a 50× final assay concentration (50 μM) in 100% DMSO, then diluted in a half-log series, with the final top concentration at 1 μM. This working stock of the compound was added to the assay well as the first component in the reaction, followed by the remaining components as detailed in the following assay protocols below. The positive control wells (100% kinase activity) contain all components of the reaction including 2% DMSO (control for solvent effects), except the compound of interest. Blank wells contain all components of the reaction, with the reference inhibitor, staurosporine. This reference compound was used to abolish kinase activity and generated the 0% kinase activity base-line. IC50 values were calculated by nonlinear regression analysis using the sigmoidal dose-response (variable slope) curve fit on XLFit version 5.3 (ID Business Solutions).
Human Met (residues R974-S1390 with A1209G and V1290L, 3.4 nM) was incubated with 8 mM MOPS pH 7.0, 0.2 mM EDTA, 250 µM KKKGQEEEYVFIE (SEQ ID NO. 45), 1 mM sodium orthovanadate, 5 mM […], 10 mM magnesium acetate, and 10 μM [γ-33P-ATP]. The reaction was initiated by the addition of the Mg/ATP mix. After incubation for 40 minutes at room temperature, the reaction was stopped by the addition of phosphoric acid to a concentration of 0.5%. A reaction aliquot of 10 μL was then spotted onto a P30 filtermat and washed four times for 4 minutes in 0.425% phosphoric acid and once in methanol prior to drying and scintillation counting. Incorporated 33P was measured using the Wallac Microbeta scintillation counter (Perkin Elmer).

Assay [6] addresses T1, Mer. Kind of assay: Human Mer kinase assay (33P radiometric, KinaseProfiler). Conditions: 10 μM ATP. The assay is classed as biochemical. Here is the method: as §1
Human Mer (residues R557-E882 with H628Q and R794A, 0.7 nM) was incubated with 8 mM MOPS pH 7.0, 0.2 mM EDTA, 30 mM NaCl, 250 μM GGMEDIYFEFMGGKKK (SEQ ID NO. 44), 10 mM magnesium acetate, and 10 μM [γ-33P-ATP]. The reaction was initiated by the addition of the Mg/ATP mix. After incubation for 40 minutes at room temperature, the reaction was stopped by the addition of phosphoric acid to a concentration of 0.5%. A reaction aliquot of 10 μL was then spotted onto a P30 filtermat and washed four times for 4 minutes in 0.425% phosphoric acid and once in methanol prior to drying and scintillation counting. Incorporated 33P was measured using the Wallac Microbeta scintillation counter (Perkin Elmer).
Target sequence in this assay (Q12866 557-882): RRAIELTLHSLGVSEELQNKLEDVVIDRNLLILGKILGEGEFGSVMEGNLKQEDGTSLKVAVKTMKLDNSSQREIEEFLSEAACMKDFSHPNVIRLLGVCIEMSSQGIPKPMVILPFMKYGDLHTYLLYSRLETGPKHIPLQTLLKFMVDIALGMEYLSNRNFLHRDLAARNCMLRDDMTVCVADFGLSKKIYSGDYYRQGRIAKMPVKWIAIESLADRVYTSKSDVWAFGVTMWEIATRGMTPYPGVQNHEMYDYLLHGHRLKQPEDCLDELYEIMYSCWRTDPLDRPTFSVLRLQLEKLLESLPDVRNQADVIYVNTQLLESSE

The target in assay [7] is Human Axl (Homo sapiens (Human), UniProt P30530, Q764R). Kind of assay: Human AXL kinase assay (33P radiometric, KinaseProfiler). The format is biochemical. Conditions: 10 μM ATP. Here is the method:
as §1
Human Axl (residues H473-A894 with Q764R, 161 nM) was incubated with 8 mM MOPS pH 7.0, 0.2 mM EDTA, 250 μM KKSRGDYMTMQIG (SEQ ID NO. 43), 10 mM magnesium acetate and 10 μM [γ-33P-ATP]. The reaction was initiated by the addition of the Mg/ATP mix. After incubation for 40 minutes at room temperature, the reaction was stopped by the addition of phosphoric acid to a concentration of 0.5%. A reaction aliquot of 10 μL was then spotted onto a P30 filtermat and washed four times for 4 minutes in 0.425% phosphoric acid and once in methanol prior to drying and scintillation counting. Incorporated ^33P was measured using the Wallac Microbeta scintillation counter (Perkin Elmer).

Chain of AXL (P30530 26-894): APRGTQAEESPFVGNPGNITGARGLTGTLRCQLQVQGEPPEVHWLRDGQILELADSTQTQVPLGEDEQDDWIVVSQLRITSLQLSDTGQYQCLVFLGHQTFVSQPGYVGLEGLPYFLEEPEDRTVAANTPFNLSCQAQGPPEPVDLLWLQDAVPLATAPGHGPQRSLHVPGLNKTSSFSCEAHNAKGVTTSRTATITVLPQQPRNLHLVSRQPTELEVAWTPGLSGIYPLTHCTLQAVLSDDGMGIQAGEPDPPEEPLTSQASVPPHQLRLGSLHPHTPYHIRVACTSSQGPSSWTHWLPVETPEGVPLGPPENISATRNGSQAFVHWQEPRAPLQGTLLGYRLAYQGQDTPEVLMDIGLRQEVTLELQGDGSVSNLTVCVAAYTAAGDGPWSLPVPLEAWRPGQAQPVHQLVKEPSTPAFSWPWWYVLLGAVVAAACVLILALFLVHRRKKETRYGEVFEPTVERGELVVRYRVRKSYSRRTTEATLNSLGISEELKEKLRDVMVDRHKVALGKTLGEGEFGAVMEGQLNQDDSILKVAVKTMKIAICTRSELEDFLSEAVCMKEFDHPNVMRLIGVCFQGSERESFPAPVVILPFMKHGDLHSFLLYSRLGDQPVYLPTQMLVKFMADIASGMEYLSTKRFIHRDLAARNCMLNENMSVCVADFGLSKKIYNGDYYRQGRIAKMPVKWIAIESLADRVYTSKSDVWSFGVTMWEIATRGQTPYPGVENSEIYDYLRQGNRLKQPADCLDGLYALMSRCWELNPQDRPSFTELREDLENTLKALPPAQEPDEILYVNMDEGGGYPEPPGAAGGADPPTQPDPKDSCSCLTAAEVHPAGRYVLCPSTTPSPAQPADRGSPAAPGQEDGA
Chain of KDR (P35968 20-1356): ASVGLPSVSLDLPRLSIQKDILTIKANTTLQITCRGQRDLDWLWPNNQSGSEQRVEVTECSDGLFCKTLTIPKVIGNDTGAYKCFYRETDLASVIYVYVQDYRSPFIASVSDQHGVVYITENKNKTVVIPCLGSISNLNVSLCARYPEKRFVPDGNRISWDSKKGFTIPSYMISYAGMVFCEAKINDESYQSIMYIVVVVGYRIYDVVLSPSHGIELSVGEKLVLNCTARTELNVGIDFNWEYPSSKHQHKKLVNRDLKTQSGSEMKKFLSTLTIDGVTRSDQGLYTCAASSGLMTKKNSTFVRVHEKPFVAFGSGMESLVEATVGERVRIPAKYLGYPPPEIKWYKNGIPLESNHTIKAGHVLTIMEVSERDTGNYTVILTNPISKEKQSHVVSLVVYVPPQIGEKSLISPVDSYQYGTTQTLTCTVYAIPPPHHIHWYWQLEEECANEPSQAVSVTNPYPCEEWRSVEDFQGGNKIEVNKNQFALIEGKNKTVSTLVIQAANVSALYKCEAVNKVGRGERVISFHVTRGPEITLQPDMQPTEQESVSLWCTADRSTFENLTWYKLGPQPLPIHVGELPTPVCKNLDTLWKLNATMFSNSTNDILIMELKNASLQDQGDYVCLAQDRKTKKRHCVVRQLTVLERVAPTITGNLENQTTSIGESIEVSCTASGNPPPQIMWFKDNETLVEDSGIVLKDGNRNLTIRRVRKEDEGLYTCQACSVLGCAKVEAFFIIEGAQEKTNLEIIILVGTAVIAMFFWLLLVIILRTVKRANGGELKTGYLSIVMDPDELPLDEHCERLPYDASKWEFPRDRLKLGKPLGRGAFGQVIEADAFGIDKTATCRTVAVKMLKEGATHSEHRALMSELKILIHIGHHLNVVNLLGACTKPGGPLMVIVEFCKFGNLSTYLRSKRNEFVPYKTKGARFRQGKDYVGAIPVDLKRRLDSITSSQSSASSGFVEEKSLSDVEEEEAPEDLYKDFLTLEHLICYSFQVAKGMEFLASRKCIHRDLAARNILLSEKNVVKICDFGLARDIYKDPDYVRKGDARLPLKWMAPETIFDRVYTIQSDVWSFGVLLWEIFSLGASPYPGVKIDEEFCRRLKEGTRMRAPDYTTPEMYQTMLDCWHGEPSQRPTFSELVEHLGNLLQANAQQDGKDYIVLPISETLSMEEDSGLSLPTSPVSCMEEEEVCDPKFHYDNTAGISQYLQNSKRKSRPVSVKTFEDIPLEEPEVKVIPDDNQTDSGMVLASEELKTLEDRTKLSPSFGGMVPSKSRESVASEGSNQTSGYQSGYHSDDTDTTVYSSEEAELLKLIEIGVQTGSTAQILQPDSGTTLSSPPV

Turning to `COc1cnc2c(Oc3cc(F)c(NC(=O)C4(C(=O)Nc5ccc(F)cc5)CC4)cc3F)ncnc2c1` [Compound 19, 1-N′-[2,5-difluoro-4-(7-methoxypyrido[3,2-d]pyrimidin-4-yl)oxyphenyl]-1-N-(4-fluorophenyl)cyclo-propane-1,1-dicarboxamide], the IC50 lay within 10 to 100 nM in assay [1], 10 to 100 nM in assay [2], 10 to 100 nM in assay [3] and 100 to 300 nM in assay [4].

Consider `COc1cc2ncnc(Oc3ccc(NC(=O)C4(C(=O)Nc5ccc(F)cc5)CC4)c(F)c3)c2nc1OC` [Compound 31, 1-N′-[4-(6,7-dimethoxy-pyrido[3,2-d]pyrimidin-4-yl)oxy-2-fluorophenyl]-1-N-(4-fluorophenyl)cyclo-propane-1,1-dicarboxamide], for which the IC50 in assay [1] was at most 10 nM; in assay [2] it was 10 to 100 nM; in assay [3] it was 10 to 100 nM; in assay [4], 10 to 100 nM.

With `COc1cc2ncnc(Oc3ccc(NC(=O)C4(C(=O)Nc5ccc(F)cc5)CC4)c(F)c3F)c2nc1OC` [Compound 34, 1-N′-[4-(6,7-dimethoxypyrido[3,2-d]pyrimidin-4-yl)oxy-2,3-difluorophenyl]-1-N-(4-fluorophenyl)cyclo-propane-1,1-dicarbox-amide], the IC50 in assay [1] was at most 10 nM; in assay [2] it was at most 10 nM; in assay [3], 10 to 100 nM; in assay [4], 10 to 100 nM.

For the compound `COc1cc2ncnc(Oc3cc(F)c(NC(=O)C4(C(=O)Nc5ccc(F)cc5)CC4)cc3F)c2nc1OC` [Compound 35, 1-N′-[4-(6,7-dimethoxypyrido[3,2-d]pyrimidin-4-yl)oxy-2,5-difluorophenyl]-1-N-(4-fluorophenyl)cyclo-propane-1,1-dicarboxamide], the IC50 in assay [1] is at most 10 nM; in assay [2], at most 10 nM; in assay [3], at most 10 nM; in assay [4], 10 to 100 nM.

On to `N#Cc1ccc2ncnc(Oc3ccc(NC(=O)C4(C(=O)Nc5ccc(F)cc5)CC4)cc3)c2c1` [Compound 106, 1-N-[4-(6-cyanoquinazolin-4-yl)oxyphenyl]-1-N′-(4-fluorophenyl)cyclopropane-1,1-dicarboxamide], for which the values for the IC50 in assay [5], in assay [6] and in assay [7] were over 1000 nM, 100 to 1000 nM and over 1000 nM, respectively.

What is called IC50 is the concentration that inhibits the measured activity by half.

The record behind these values is patent US11708367B2, “Compounds for the treatment of kinase-dependent disorders” (Exelixis, Inc., priority 2018, dated 2023).
